Experimental data taken from US12419888B2, “Methods of treating elevated plasma cholesterol” (INSTITUT DE CARDIOLOGIE DE MONTREAL, priority 2020, dated 2025).

Each compound was assayed on LDLR protein levels in HepG2 cells (assay: Western blot analysis of relative LDLR protein levels in HepG2 cells after treatment). Conditions: HepG2 cells incubated overnight with compound, 0.2 μM to 20 μM.
Type: cell-based, human
Protocol: Cell culture, treatments and cell viability assay. For phenotypic screening of PCSK9 modulators and/or LDLR small molecule inducers, human HepG2 cells were incubated overnight in conditioned media containing chemical compounds resuspended in DMSO at concentration ranging from 0.2 μM to 20 μM. […] Following incubation, media have been replaced and cells incubated for 4 h with 100 μL of phenol red-free DMEM containing 0.5 mg/mL of MTT (3-[4,5-dimethylthiazol-2-yl]-2,5-diphenyltetrazolium bromide; thiazolyl blue; catalog no. M5655, Sigma-Aldrich), following manufacturer's instructions.
Western Blot Analysis, Immunocytochemistry and LDLR Activity Assay. Following incubation, cells were washed three times in phosphate-buffered saline (PBS) and lysed in radioimmune precipitation assay buffer (50 mM Tris/HCl, pH 8.0, 1% (v/v) Nonidet P-40, 0.5% sodium deoxycholate, 150 mM NaCl, and 0.1% (v/v) SDS) supplemented with a complete protease inhibitor mixture (catalog no. 11 697 498 001, Roche Applied Science). Proteins were separated by SDS polyacrylamide gel electrophoresis, blotted on nitrocellulose membranes (Bio-Rad), blocked incubated with indicated antibodies as described (Poirier S, et al., Cell Rep, 2015). For immunocytochemistry analysis, cells were permeabilized or not with 0.1% Triton X-100/PBS for 10 min, and incubated with 150 mM glycine, blocked and incubated with indicated primary and secondary antibodies. Immunofluorescence analyses were performed with an Olympus FluoView FV10i confocal microscope (Poirier et al., Cell Rep. 2015; 13(10):2064-2071). For LDLR activity assay, HepG2 cells were incubated overnight without or with a given compound in the presence of 5 μg/ml fluorescent labelled DiI-LDL (Alfa Aesar, Cat. #J65330) and co-stained for LDLR if applicable, as described (Poirier et al., J Biol Chem. 2009; 284(42):28856-28864). Immunofluorescence analyses were performed with an Olympus FluoView FV10i confocal microscope.

| SMILES | LDLR Fold (relative LDLR protein levels) [Fold] |
| --- | --- |
| CC1CCN(CC(=O)N2CCN(c3nnc(-c4ccccc4)c4ccccc34)CC2)CC1 [Compound 40, 2-(4-methylpiperidin-1-yl)-1-[4-(4-phenylphthalazin-1-yl)piperazin-1-yl]ethan-1-one] | 0.9 |
| COc1ccc2cc([C@]3(C)NC(=O)N(CC(=O)N4CCC[C@@H]5CCCC[C@@H]54)C3=O)ccc2c1 (stereo in doubt) [Compound 15, 3-[2-(decahydroquinolin-1-yl)-2-oxoethyl]-5-(6-methoxynaphthalen-2-yl)-5-methylimidazolidine-2,4-dione] | 1.1 ± 0.6 |
| O=C(Nc1ccccc1)[C@H]1CCCN(C(=O)c2cc(C3CC3)nc3ccccc23)C1 (stereo in doubt) [Compound 45, 1-(2-cyclopropylquinoline-4-carbonyl)-N-phenylpiperidine-3-carboxamide] | 1.2 |
| Cc1cccc(C(=O)N2CCC[C@H](Cn3cc(C(C)(C)N)nn3)C2)c1C (stereo in doubt) [Compound 50, 2-(1-{[1-(2,3-dimethylbenzoyl)piperidin-3-yl]methyl}-1H-1,2,3-triazol-4-yl)propan-2-amine] | 1.1 |
| O=C(Nc1ccccc1)[C@H]1CCCN(C(=O)c2cc(-c3ccncc3)nc3ccccc23)C1 (stereo in doubt) [Compound 46, N-phenyl-1-[2-(pyridin-4-yl)quinoline-4-carbonyl]piperidine-3-carboxamide] | 1.1 |
| Cc1cccc([C@@H]2c3[nH]c4ccccc4c3CCN2C(=O)CCN2CCCCC2=O)n1 (stereo in doubt) [Compound 20, 1-{3-[1-(6-methylpyridin-2-yl)-1H,2H,3H,4H,9H-pyrido[3,4-b]indol-2-yl]-3-oxopropyl}piperidin-2-one] | 1.4 |
| CN1C(=O)c2cc(C(=O)N3CCN(c4ccccc4)CC3)nn2C[C@]1(C)C(=O)NC1CCCCCC1 (stereo in doubt) [Compound 5, N-cycloheptyl-5,6-dimethyl-4-oxo-2-(4-phenylpiperazine-1-carbonyl)-4H,5H,6H,7H-pyrazolo[1,5-a]pyrazine-6-carboxamide] | 0.8 ± 0.0 |
| COc1ccccc1[C@H]1N=C(N2CCC(Cc3ccccc3)CC2)N=C2N=C(C)C=C(O)N21 (stereo in doubt) [Compound 52, 2-(4-benzylpiperidin-1-yl)-4-(2-methoxyphenyl)-8-methyl-4H-pyrimido[1,2-a][1,3,5]triazin-6-ol] | 0.7 |
| CC1(c2ccc3ccccc3c2)NC(=O)N(CC(=O)N2CCC(c3nc4ccccc4s3)CC2)C1=O (stereo not shown) [Compound 13, 3-{2-[4-(1,3-benzothiazol-2-yl)piperidin-1-yl]-2-oxoethyl}-5-methyl-5-(naphthalen-2-yl)imidazolidine-2,4-dione] | 1.5 ± 0.7 |
| CC1=NC2=NC(N3CCC(Cc4ccccc4)CC3)=N[C@H](c3ccccc3)N2C(O)=C1 (stereo in doubt) [Compound 30, 2-(4-benzylpiperidin-1-yl)-8-methyl-4-phenyl-4H-pyrimido[1,2-a][1,3,5]triazin-6-ol] | 0.6 |
| Cc1ccc2nccc(C(=O)N3CCC[C@H](Cn4cc(C(C)(C)N)nn4)C3)c2c1 (stereo in doubt) [Compound 44, 2-[1-({1-[(6-methylquinolin-4-yl)carbonyl]piperidin-3-yl}methyl)-1H-1,2,3-triazol-4-yl]propan-2-amine] | 1.2 |
| CC1(c2ccc3ccccc3c2)NC(=O)N(CC(=O)N2CCCC(c3nc4ccccc4s3)C2)C1=O (stereo not shown) [Compound 12, 3-{2-[3-(1,3-benzothiazol-2-yl)piperidin-1-yl]-2-oxoethyl}-5-methyl-5-(naphthalen-2-yl)imidazolidine-2,4-dione] | 1.8 ± 0.6 |
| CC[C@@H]1CCCCN1C(=O)CN1C(=O)N[C@@](C)(c2ccc3ccccc3c2)C1=O (stereo in doubt) [Compound 18, 3-[2-(2-ethylpiperidin-1-yl)-2-oxoethyl]-5-methyl-5-(naphthalen-2-yl)imidazolidine-2,4-dione] | 1.4 ± 0.7 |
| O=C([C@H]1CCCO1)N1CCN(c2nnc(-c3ccccc3)c3ccccc23)CC1 (stereo in doubt) [Compound 42, 1-[4-(oxolane-2-carbonyl)piperazin-1-yl]-4-phenylphthalazine] | 0.6 |
| C[C@@]1(c2ccc3ccccc3c2)NC(=O)N(CC(=O)N2CCC[C@@H]3CCCC[C@@H]32)C1=O (stereo in doubt) [Compound 17, 3-[2-(decahydroquinolin-1-yl)-2-oxoethyl]-5-methyl-5-(naphthalen-2-yl)imidazolidine-2,4-dione] | 1.2 ± 0.6 |
| c1ccc2c(N3CCN(Cc4ccc5c(c4)OCO5)CC3)nnc(Cc3ccncc3)c2c1 [Compound 41, 1-{4-[(2H-1,3-benzodioxol-5-yl)methyl]piperazin-1-yl}-4-[(pyridin-4-yl)methyl]phthalazine] | 0.7 |
| Cc1cccc([C@H]2c3[nH]c4ccccc4c3CCN2C(=O)C(=O)CCc2ccccc2)n1 (stereo in doubt) [Compound 24, 1-[1-(6-methylpyridin-2-yl)-1H,2H,3H,4H,9H-pyrido[3,4-b]indol-2-yl]-4-phenylbutane-1,2-dione] | 1.6 |
| Cc1cccc(C2c3[nH]c4ccccc4c3CCN2C(=O)CCCN2CCCCC2=O)n1 (stereo not shown) [Compound 28, 1-{4-[1-(6-methylpyridin-2-yl)-1H,2H,3H,4H,9H-pyrido[3,4-b]indol-2-yl]-4-oxobutyl}piperidin-2-one] | 1.0 |
| Cc1ccc(-c2cc(C(=O)N3CCc4c([nH]c5ccccc45)C3c3ccccn3)[nH]n2)s1 (stereo not drawn) [Compound 25, 2-{[3-(5-methyl-2-thienyl)-1H-pyrazol-5-yl]carbonyl}-1-(2-pyridinyl)-2,3,4,9-tetrahydro-1H-beta-carboline] | 1.1 |
| Cc1nn(CC(=O)N2CCc3c([nH]c4ccccc34)[C@H]2c2ccccn2)c(=O)c2ccccc12 [Compound 2, 4-methyl-2-{2-oxo-2-[1-(2-pyridinyl)-1,3,4,9-tetrahydro-2H-beta-carbolin-2-yl]ethyl}-1(2H)-phthalazinone] | 1.0 ± 0.5 |
| O=C(CN1CCN(c2nnc(-c3ccccc3)c3ccccc23)CC1)N1CCCC1 [Compound 35, 2-[4-(4-phenylphthalazin-1-yl)piperazin-1-yl]-1-(pyrrolidin-1-yl)ethan-1-one] | 0.9 |
| CCOc1cccc([C@@H]2CC(c3ccc(C)cc3)=NC3(CCN(C(C)=O)CC3)N2)c1O (stereo in doubt) [Compound 3, 1-[4-(3-ethoxy-2-hydroxyphenyl)-2-(4-methylphenyl)-1,5,9-triazaspiro[5.5]undec-1-en-9-yl]ethan-1-one] | 1.8 ± 0.6 |
| CC1=NC2=NC(N3CCN(c4ccccc4)CC3)=N[C@H](c3ccc(Cl)cc3)N2C(O)=C1 (stereo in doubt) [Compound 31, 4-(4-chlorophenyl)-8-methyl-2-(4-phenylpiperazin-1-yl)-4H-pyrimido[1,2-a][1,3,5]triazin-6-ol] | 1.1 |
| COc1ccccc1C1N=C(Nc2cccc(C)c2C)N=C2N=C(C)C=C(O)N21 (stereo not shown) [Compound 32, 2-[(2,3-dimethylphenyl)amino]-4-(2-methoxyphenyl)-8-methyl-4H-pyrimido[1,2-a][1,3,5]triazin-6-ol] | 0.8 |
| O=C(NCCc1c[nH]c2ccccc12)c1ccc2c(c1)NC(=O)[C@H]1CCCCN21 (stereo in doubt) [Compound 8, N-[2-(1H-indol-3-yl)ethyl]-6-oxo-5,6a,7,8,9,10-hexahydropyrido[1,2-a]quinoxaline-3-carboxamide] | 1.0 ± 0.2 |
| CC1(c2ccc3ccccc3c2)NC(=O)N(CC(=O)N2CCCCC2c2nc3ccccc3s2)C1=O (stereo not shown) [Compound 11, 3-{2-[2-(1,3-benzothiazol-2-yl)piperidin-1-yl]-2-oxoethyl}-5-methyl-5-(naphthalen-2-yl)imidazolidine-2,4-dione] | 1.5 ± 0.4 |
| O=C(CN1C(=O)c2ccccc2C1=O)N1CCN(c2nnc(-c3ccccc3)c3ccccc23)CC1 [Compound 38, 2-{2-oxo-2-[4-(4-phenylphthalazin-1-yl)piperazin-1-yl]ethyl}-2,3-dihydro-1H-isoindole-1,3-dione] | 0.9 |
| Cc1ccc(-c2nnc(N3CCN(C(=O)c4ccco4)CC3)c3ccccc23)cc1 [Compound 39, 1-[4-(furan-2-carbonyl)piperazin-1-yl]-4-(4-methylphenyl)phthalazine] | 0.9 |
